Reference: ChEMBL document CHEMBL3593192, “Synthesis and biological evaluation of novel histone deacetylases inhibitors with nitric oxide releasing activity” (Bioorg Med Chem, 2015)
Calls of active or inactive are those of the source. No cut-off for these calls is given here.

Legend:
cells [1] = assay type: functional, cell-based, ES2; conditions: Homo sapiens, ES-2, 48 h
Description: Cytotoxicity against human ES2 cells assessed as inhibition of cell proliferation after 48 hrs by MTT assay

HeLa = assay: cells; assay type: functional, cell-based; conditions: Homo sapiens, 48 h
Description: Cytotoxicity against human HeLa cells assessed as inhibition of cell proliferation after 48 hrs by MTT assay

[2] = target: Histone deacetylase (HDAC1 and HDAC2) (Homo sapiens, UniProt Q13547+Q92769); assay: Inhibition of HDAC1/2 in human HeLa cells using Boc-Lys (acetyl)-AMC as substrate preincubated for 30 mins followed by substrate addition measured after 30 mins by fluorescence assay; assay type: cell-based
HCT-116 [3] = assay: Induction of nitric oxide production in human HCT116 cells at 100 uM after 5 hrs by Griess assay; assay type: functional, cell-based
PC-3 = assay: cells; assay type: functional, cell-based; conditions: Homo sapiens, PC-3, 48 h
Description: Cytotoxicity against human PC3 cells assessed as inhibition of cell proliferation after 48 hrs by MTT assay

U-937 = assay: Cytotoxicity against human U937 cells assessed as inhibition of cell proliferation after 48 hrs by MTT assay; assay type: functional, cell-based; conditions: U-937, 48 h
B16 = assay: cells; assay type: functional, cell-based; conditions: Mus musculus, B16, 48 h
Description: Cytotoxicity against mouse B16 cells assessed as inhibition of cell proliferation after 48 hrs by MTT assay

cells [4] = assay type: functional, cell-based; conditions: Homo sapiens, KG-1, 48 h
Description: Cytotoxicity against human KG1 cells assessed as inhibition of cell proliferation after 48 hrs by MTT assay

HCT-116 [5] = assay: cells; assay type: functional, cell-based; conditions: Homo sapiens, HCT-116, 48 h
HEL = assay: cells; assay type: functional, cell-based; conditions: Homo sapiens, 48 h
Description: Cytotoxicity against HEL cells assessed as inhibition of cell proliferation after 48 hrs by MTT assay

HCT-116 [6] = assay: Cytotoxicity against human HCT116 cells assessed as inhibition of cell proliferation after 48 hrs by MTT assay in presence of SAHA; assay type: functional, cell-based; conditions: HCT-116, 48 h
HCT-116 [7] = assay: Cytotoxicity against nitric oxide scavenger hemoglobin-treated human HCT116 cells assessed as inhibition of cell proliferation at 2 uM after 24 hrs by MTT assay; assay type: functional, cell-based

Row | SMILES | IC50 (cells [1]) [µM] | IC50 (HeLa) [µM] | IC50 [2] [µM] | Activity (HCT-116 [3]) | IC50 (PC-3) [µM] | IC50 (U-937) [µM] | IC50 (B16) [µM] | IC50 (cells [4]) [µM] | IC50 (HCT-116 [5]) [µM] | IC50 (HEL) [µM] | IC50 (HCT-116 [6]) [µM] | inhibition (HCT-116 [7])
1 | O=C(CCCCCOC(=O)c1ccc2c(c1)no[n+]2[O-])NO | 20.6 | 17.3 | 0.437 | Active | 12.4 | 33.4 | 30.2 | 3.69 | 3.36 | 11.6 | – | –
2 | O=C(O)c1cccc2c1no[n+]2[O-] | – | – | > 1000 | Active | – | – | – | – | 64 | – | 8.52 | –
3 | O=C(CCCCCCCOC(=O)c1ccc2c(c1)no[n+]2[O-])NO | 9.23 | 5.31 | 0.1804 | Active | 1.39 | 11.9 | 7.99 | 5.21 | 2.29 | 1.5 | – | –
4 | O=C(CCCCCOC(=O)c1cccc2c1no[n+]2[O-])NO | 66.3 | 42.1 | 0.017 | Active | 16.9 | 21.6 | 27.9 | 12.4 | 2.81 | 3.74 | – | –
5 | O=C(CCCCCCCOC(=O)c1cccc2c1no[n+]2[O-])NO | > 80 | 34.2 | 0.1373 | – | > 80 | > 80 | > 80 | 0.53 | > 80 | 12.1 | – | –
6 | O=C(CCCCCCOC(=O)c1cccc2c1no[n+]2[O-])NO | 21.2 | 27.2 | 0.0128 | Active | 9.37 | 34.6 | 18.2 | 2.98 | 1.09 | 3.71 | – | inactive
7 | O=C(CCCCOC(=O)c1ccc2c(c1)no[n+]2[O-])NO | 25 | 15.9 | 2.207 | – | 12.7 | 19.9 | 24 | 8.19 | 2.63 | 1.21 | – | –
8 | O=C(O)c1ccc2c(c1)no[n+]2[O-] | – | – | > 1000 | Active | – | – | – | – | 55.8 | – | 11.5 | –
9 | O=C(CCCOC(=O)c1ccc2c(c1)no[n+]2[O-])NO | 27.1 | 17 | 5.5697 | – | 6.58 | 13 | 22.2 | 4.02 | 2.06 | 2.09 | – | –
10 | O=C(CCCCCCC(=O)Nc1ccccc1)NO [VORINOSTAT] | – | – | – | – | – | 4.82 | – | – | – | – | – | –
11 | O=C(CCCCCCOC(=O)c1ccc2c(c1)no[n+]2[O-])NO | 5.07 | 9.18 | 0.0184 | Active | 0.95 | 12.4 | 4.97 | 0.37 | 1.09 | 1.26 | – | inactive
12 | O=C(CCCOC(=O)c1cccc2c1no[n+]2[O-])NO | 73.8 | 72 | 6.8072 | – | 13.4 | 53.9 | > 80 | 12.4 | 16.2 | 6.6 | – | –
13 | O=C(CCCCOC(=O)c1cccc2c1no[n+]2[O-])NO | 44.4 | 20.2 | 0.2576 | – | 14.2 | 11.3 | 30.5 | 6.69 | 2.73 | 3.14 | – | –
